Holding throughout (assay): inhibition of tumour cell growth, NCI panel, 48 h
Assay [1] deals with DU-145 prostate.
The subject of assay [2] is HCC-2998 colon.
Assay [3] has as its system HCT-116 colon.
For assay [4], the system named is HOP-62 NSCLC.
The test system of assay [5] is MALME-3M melanoma.
For assay [6], the system named is NCI-H522 lung.
Assay [7] deals with PC-3 prostate.
Assay [8] has as its system SF-268 CNS.
For assay [9], the system named is SK-MEL-5 melanoma.
In assay [10] the test system is SK-OV-3 ovarian.

Several values for one entry are separate records, joined by “and”; a condition that tells them apart may be missing. Equal values may be shown once.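 Results reflect a 48-hour exposure of cells in 96-well plates to compound at five concentrations. Here, GI50 denotes the concentration required for 50% inhibition of growth. TGI denotes the concentration required for complete inhibition of growth.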 Bounds are passed on as bounds.

Regarding `Cc1cc(Nc2cc(N3CCN(C)CC3)nc(/C=C/c3ccccc3)n2)n[nH]1`, the GI50 in assay [1] is 1.04 µM; in [2], 0.839 µM; in [3], 0.201 µM; in [4] it was 0.768 µM; in assay [5], 0.796 µM; in assay [6] it was 0.336 µM. For the same compound, the GI50 in [7] is 0.794 µM; in assay [8] it was 0.845 µM; in assay [9] it was over 2.11 µM; in assay [10], 1.35 µM. Besides, the TGI in [1] was over 10 µM; in assay [2] it was 4.42 µM; in assay [3], over 10 µM; in [4], over 3.98 µM; in assay [5], over 4.77 µM; in [6], over 2.19 µM. The TGI in assay [7] was over 6.61 µM; in assay [8] it was over 4.08 µM; in assay [9] it was over 4.15 µM; in assay [10], over 10 µM.

For the compound `CC[C@@H](C)/C=C(C)/C=C/C(=O)c1c(O)c(-c2ccc(O)cc2)cn(O)c1=O`, the GI50 was 0.496 µM in [1]; 2.31 µM in assay [2]; 0.395 µM in assay [3]; 0.492 µM in assay [4]; 0.255 µM in [5]; 0.399 µM in assay [6]. In addition, the GI50 was 3.2 µM in assay [7], 0.33 µM in [8], 0.201 µM in [9] and 0.642 µM in assay [10]. Besides, the TGI in assay [1] was 13.8 µM; in [2], 13.1 µM; in [3], 13 µM; in [4], 14.7 µM; in [5] it was 4.7 µM; in [6], 3.74 µM. Further, the TGI in assay [7] was 18.8 µM; in assay [8], 12.3 µM; in assay [9], 0.562 µM; in assay [10], 21.7 µM.

For the compound `CC(=O)N1N=C(c2ccc(Nc3nc(Nc4ccc(F)cc4)nc(Nc4ccc(F)cc4)n3)cc2)CC1c1ccc(N(C)C)cc1` (stereo not given), the GI50 in assay [1] was 11.9 µM; in assay [2], 15.9 µM; in [3], 3.6 µM; in assay [4], 5.98 µM; in assay [5], 11.4 µM; in assay [6], 4.81 µM. Also, the GI50 in assay [7] is 1.6 µM; in [8], 12.8 µM; in assay [9] it was 2.83 µM; in [10] it was 15.5 µM. Also, the TGI in assay [1] was 32 µM; in assay [2] it was over 100 µM; in [3], 14.7 µM; in assay [4], 26 µM; in assay [5], 34.8 µM; in assay [6], 30 µM. In addition, the TGI in [7] came to 6.97 µM; in assay [8], 43.3 µM; in [9], 13 µM; in assay [10] it was 53.7 µM.

For the compound `Cc1cc(Nc2nc(N[C@@H](C)c3ncc(F)cn3)ncc2Cl)n[nH]1`, the GI50 in assay [1] was 40.8 µM; in [2] it was 38.7 µM; in [3], 13.3 µM; in assay [4], 20 µM; in assay [5], 47.1 µM; in [6], 21.1 µM. For the same compound, the GI50 in assay [7] was 43.7 µM; in [8], 18.2 µM; in assay [9], 26 µM; in assay [10], 22.6 µM. The TGI in [1], in assay [2], in assay [3], in assay [4], in [5] and in assay [6] was over 100 µM in each case. Moreover, the TGI in [7] was over 100 µM; in assay [8], over 82.4 µM; in assay [9] it was over 100 µM; in assay [10], over 100 µM.

Regarding `Cn1cc(-c2cnn3c(N)c(Br)c(C4CCCNC4)nc23)cn1` (stereo not given), the GI50 is 3.2 µM in assay [1]; 1.02 µM in assay [2]; 6.04 µM in assay [3]; 6.69 µM in assay [4]; 6.11 µM in [5]; 24.5 µM in [6]. For the same compound, the GI50 in assay [7] was 5.26 µM; in [8], 15.2 µM; in assay [9], 3.64 µM; in [10], 4.06 µM. Besides, the TGI in assay [1] is 65 µM; in [2], over 42.6 µM; in [3], 24.6 µM; in [4], over 100 µM; in assay [5], 27.1 µM; in assay [6] it was over 100 µM. In addition, the TGI is over 86.2 µM in assay [7], over 100 µM in [8], 18.7 µM in [9] and 66.8 µM in [10].

With `CCCCCC/C=C\CCCCCCCCCC1=C(CN2CCN(C)CC2)C(=O)C=C(OC)C1=O`, the TGI in [1] was determined as 26.2 µM; in [2], 23.8 µM; in [3], 4.41 µM; in assay [4], 30.7 µM; in assay [5] it was 9.55 µM; in [6] it was 3.01 µM. Besides, the TGI in [7] was determined as 10.5 µM; in assay [8], 19.7 µM; in assay [9], 19.3 µM; in assay [10], 25.9 µM.

Take `CC(=O)C1=C(O)C=C2Oc3c(C(=O)/C=C/c4cc(Cl)cc(Cl)c4)c(O)c(C)c(O)c3[C@]2(C)C1=O`: the GI50 in assay [1] is 0.622 µM; in assay [2], 0.667 µM; in assay [3] it was 0.465 µM; in assay [4], 0.48 µM; in [5], 0.335 µM; in assay [6] it was 0.334 µM. The GI50 in assay [7] was 0.537 µM; in [8], 0.67 µM; in assay [9] it was 0.424 µM; in assay [10] it was 0.449 µM. Moreover, the TGI in [1] turned out to be 5.58 µM; in [2], 2.69 µM; in [3], 1.38 µM; in [4] it was 1.67 µM; in assay [5], 0.739 µM; in [6], 0.919 µM. Further, the TGI amounted to 2.04 µM in assay [7], 3.38 µM in [8], 1.05 µM in assay [9] and 1.33 µM in assay [10].

On to `CCN(Cc1cccc(Cl)c1)c1ccc(CO)c(Cl)c1`, for which the GI50 was 11.6 µM in assay [1]; 11.3 µM in assay [2]; 0.105 µM in [3]; 2.09 µM in assay [4]; 15.8 µM in assay [5]; 12.8 µM in [6]. For the same compound, the GI50 is 9.8 µM in assay [7], 13.8 µM in [8], 5.73 µM in [9] and 5.62 µM in [10]. Also, the TGI came out at 24.8 µM in [1]; 24.8 µM in [2]; 10.3 µM in assay [3]; 16.3 µM in assay [4]; 32.8 µM in [5]; 27.1 µM in assay [6]. Also, the TGI worked out at 23.2 µM in [7], 28 µM in [8], 19.9 µM in assay [9] and 18.2 µM in assay [10].

Regarding `C#CCN(c1ccc(C(=O)N[C@@H](CCC(=O)N[C@H](CCC(=O)O)C(=O)O)C(=O)O)cc1)C1CCc2cc3nc(CO)[nH]c(=O)c3cc21` (stereo not given in full), the GI50 in [1] was 16.5 µM; in [2], 1.32 µM; in [3], 7.53 µM; in assay [4], over 31.8 µM; in assay [5], over 100 µM; in assay [6], over 100 µM. The GI50 in assay [7] was over 100 µM; in [8], 5.94 µM; in [9], 10 µM; in assay [10], over 53.4 µM. The TGI in [1], in assay [2], in assay [3], in assay [4], in assay [5] and in [6] was over 100 µM each time. In addition, the TGI in assay [7], in assay [8], in assay [9] and in [10] was over 100 µM each time.

On to `C=CCC(N[C@@H](CO)c1ccccc1)c1cn(C(=O)OCC)c2ccccc12` (stereo not given in full), for which the GI50 in assay [1] is 27.6 µM; in assay [2], 16.3 µM; in assay [3], 15.5 µM; in assay [4] it was 20.4 µM; in assay [5], 17.1 µM; in assay [6] it was 21.9 µM. Moreover, the GI50 in assay [7] was 22.3 µM; in [8], 23 µM; in assay [9], 14.2 µM; in assay [10], 49.1 µM. The TGI came to 86 µM in assay [1]; 31.8 µM in assay [2]; 29.3 µM in assay [3]; 45.8 µM in assay [4]; 39.1 µM in assay [5]; 46.8 µM in [6]. For the same compound, the TGI is over 100 µM in [7], 54.5 µM in assay [8], 28.9 µM in assay [9] and over 100 µM in assay [10].

Take `O=C1/C(=C/c2ccc(Cl)cc2)CNC/C1=C\c1ccc(Cl)cc1`: the TGI in assay [1] is 7.57 µM; in [2], 4 µM and 3.36 µM; in assay [3] it was 3.07 µM and 3.85 µM; in [4] it was 12.5 µM and 7.03 µM; in assay [5], 20.5 µM and 16.8 µM; in [6], 4.4 µM and 4.75 µM. In addition, the TGI in assay [7] was 21.2 µM; in assay [8], 3.77 µM; in assay [9], 22.1 µM and 11.3 µM; in assay [10], over 100 µM.

The values above are taken from PubChem BioAssay (NCI).
